These results are taken from patent US10077261B2, “Imidazolin-5-one derivative useful as FASN inhibitors for the treatment of cancer” (Janssen Pharmaceutica NV, priority 2012, dated 2018).

Structures are written as SMILES. pIC50: −log10 of the molar value.

In assay [1] the target is Fatty Acid Synthase Keto-reductase Domain (FASN KR) (Homo sapiens, UniProt P49327). Put plainly: Fatty Acid Synthase keto-reductase domain (FASN KR) inhibition, NADPH oxidation at 340 nm.
Experimental: After 20 minutes incubation at room temperature the plate was measured again (T2).
The decrease in absorbance was calculated as (Absorbance before incubation T1)−(Absorbance following incubation T2).
A plot of Controlmin versus test compound concentration was fitted to a 4-parameter logistic curve using a non-linear least squares regression method.
The target in assay [2] is T1, hFASN enzyme (full length) (Homo sapiens, UniProt P49327).
T1 construct: 10 μL hFASN enzyme (full length, 300 ng, purified in house); made in house
T1 sequence (P49327 whole entry): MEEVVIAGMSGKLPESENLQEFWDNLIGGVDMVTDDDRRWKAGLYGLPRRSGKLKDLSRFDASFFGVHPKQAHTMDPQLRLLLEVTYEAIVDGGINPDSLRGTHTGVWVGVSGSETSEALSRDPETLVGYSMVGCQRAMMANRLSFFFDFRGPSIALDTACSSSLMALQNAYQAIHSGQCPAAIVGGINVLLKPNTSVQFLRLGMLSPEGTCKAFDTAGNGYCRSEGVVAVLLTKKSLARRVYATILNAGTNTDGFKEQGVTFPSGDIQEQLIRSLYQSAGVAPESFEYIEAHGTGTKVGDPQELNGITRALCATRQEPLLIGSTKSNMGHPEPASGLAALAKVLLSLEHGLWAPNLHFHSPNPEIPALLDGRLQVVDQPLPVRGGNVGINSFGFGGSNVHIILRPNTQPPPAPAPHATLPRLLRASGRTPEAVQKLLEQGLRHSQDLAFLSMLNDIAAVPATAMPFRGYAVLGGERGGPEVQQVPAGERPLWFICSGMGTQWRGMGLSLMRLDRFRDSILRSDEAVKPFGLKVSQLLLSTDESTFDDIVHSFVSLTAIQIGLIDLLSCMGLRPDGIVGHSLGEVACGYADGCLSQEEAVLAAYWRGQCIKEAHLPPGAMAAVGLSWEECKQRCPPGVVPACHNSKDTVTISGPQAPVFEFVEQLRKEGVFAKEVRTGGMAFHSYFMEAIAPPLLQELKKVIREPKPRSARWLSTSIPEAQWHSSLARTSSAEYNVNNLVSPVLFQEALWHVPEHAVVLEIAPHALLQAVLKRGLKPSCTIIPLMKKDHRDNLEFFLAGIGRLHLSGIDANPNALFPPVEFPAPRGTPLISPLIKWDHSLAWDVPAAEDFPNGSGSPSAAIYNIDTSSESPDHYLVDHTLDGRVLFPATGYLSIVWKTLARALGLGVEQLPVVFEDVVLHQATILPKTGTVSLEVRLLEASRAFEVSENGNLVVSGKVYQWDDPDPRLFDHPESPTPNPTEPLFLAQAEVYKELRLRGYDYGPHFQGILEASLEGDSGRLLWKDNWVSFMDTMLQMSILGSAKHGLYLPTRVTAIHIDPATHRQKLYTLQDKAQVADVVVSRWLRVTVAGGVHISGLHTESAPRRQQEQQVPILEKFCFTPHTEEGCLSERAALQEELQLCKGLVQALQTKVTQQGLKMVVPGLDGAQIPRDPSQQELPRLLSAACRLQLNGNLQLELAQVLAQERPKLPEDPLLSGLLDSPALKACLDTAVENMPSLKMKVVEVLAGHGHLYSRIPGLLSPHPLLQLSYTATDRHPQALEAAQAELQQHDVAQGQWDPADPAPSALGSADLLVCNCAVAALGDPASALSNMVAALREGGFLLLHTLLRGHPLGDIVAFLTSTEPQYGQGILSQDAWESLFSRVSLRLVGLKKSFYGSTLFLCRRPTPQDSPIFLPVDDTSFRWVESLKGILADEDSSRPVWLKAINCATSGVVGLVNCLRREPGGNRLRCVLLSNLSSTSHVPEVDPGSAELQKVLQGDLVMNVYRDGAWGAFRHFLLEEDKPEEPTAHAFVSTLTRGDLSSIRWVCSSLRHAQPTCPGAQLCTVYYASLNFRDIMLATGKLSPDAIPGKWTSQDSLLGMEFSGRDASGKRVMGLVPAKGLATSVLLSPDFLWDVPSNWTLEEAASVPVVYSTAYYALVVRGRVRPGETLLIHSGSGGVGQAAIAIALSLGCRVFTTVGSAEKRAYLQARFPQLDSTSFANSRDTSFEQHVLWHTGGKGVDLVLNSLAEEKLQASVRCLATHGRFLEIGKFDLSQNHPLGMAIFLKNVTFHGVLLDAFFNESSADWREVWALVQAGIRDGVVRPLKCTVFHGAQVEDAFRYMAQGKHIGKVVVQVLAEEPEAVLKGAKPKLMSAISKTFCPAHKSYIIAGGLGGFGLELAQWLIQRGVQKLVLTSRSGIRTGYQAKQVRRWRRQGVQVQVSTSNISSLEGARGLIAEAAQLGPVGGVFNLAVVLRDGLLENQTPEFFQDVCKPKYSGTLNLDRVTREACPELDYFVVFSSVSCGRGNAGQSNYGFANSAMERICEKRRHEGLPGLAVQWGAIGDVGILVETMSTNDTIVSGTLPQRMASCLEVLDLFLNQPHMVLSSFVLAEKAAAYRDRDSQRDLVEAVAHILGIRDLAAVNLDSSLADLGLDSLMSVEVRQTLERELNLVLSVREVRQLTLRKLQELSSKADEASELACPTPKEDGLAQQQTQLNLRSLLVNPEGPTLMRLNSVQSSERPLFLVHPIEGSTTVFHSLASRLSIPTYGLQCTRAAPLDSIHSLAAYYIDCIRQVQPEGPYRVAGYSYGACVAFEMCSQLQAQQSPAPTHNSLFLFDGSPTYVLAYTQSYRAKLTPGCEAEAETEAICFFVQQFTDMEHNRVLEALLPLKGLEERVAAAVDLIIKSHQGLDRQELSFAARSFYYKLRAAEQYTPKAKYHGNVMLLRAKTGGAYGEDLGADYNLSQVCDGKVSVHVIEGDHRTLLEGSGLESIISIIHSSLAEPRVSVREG
The experiment in a line: Fatty Acid Synthase (FASN) inhibition scintillation proximity assay. It is filed as biochemical. To be noted: for inhibition at 10 µM: read-out: Human FASN % inhibition @ 10 μM, 10 μM test compound; for IC50: read-out: Human FASN pIC50 (converted). An outline of the steps: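 Purified full-length hFASN (300 ng) converts ^3H-acetyl-CoA plus malonyl-CoA to ^3H-palmitate in 100 mM KH2PO4 pH 7.5, 1 mM DTT; compounds tested at 0.01–30 μM. Product captured on streptavidin imaging beads and read by LEADseeker at 610 nm after ≥24 h; 4-parameter logistic fit versus controls.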
A general note: In a scintillation proximity assay essentially only radioactivity close to the scintillant gives light.

Assay [3] deals with A2780 ovarian cells. Put plainly: A2780 ovarian cell proliferation assay in lipid reduced medium, without palmitate (MTT). It is filed as cell-based. To be noted: Homo sapiens, A2780, 96 h; read-out: pIC50 A2780 Ovarian Cell, Without Palmitate (converted).
Assay [4] concerns A2780 ovarian cells. Put plainly: A2780 ovarian cell proliferation assay in lipid reduced medium, with palmitate (MTT). It is filed as cell-based. To be noted: Homo sapiens, A2780, 96 h; read-out: pIC50 A2780 Ovarian Cell, With Palmitate (converted). The method, boiled down:
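Seeded cells were switched next day to lipid-reduced serum, exposed to compound and 25 μM palmitate complexed with fatty-acid-free BSA, and incubated 96 h. Proliferation was then determined by MTT absorbance at 544 nm, with a best-fit curve of signal against concentration.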

Sequence of Fatty Acid Synthase Keto-reductase Domain (FASN KR) (P49327 whole entry, the tested form may be a part): as the sequence (P49327 whole entry) above

By pIC50 is commonly meant −log10 of the IC50, conventionally taken in molar units. The term inhibition denotes the drop in the measured response relative to a control, in per cent. With `Cc1cc(-c2ccc3[nH]ccc3c2)ccc1C1=NC2(CCCC2)C(=O)N1C[C@@H]1CCN(C(=O)C2CC2)C1` [compound 73, 3-{[(3R)-1-(Cyclopropylcarbonyl)pyrrolidin-3-yl]methyl}-2-[4-(1H-indol-5-yl)-2-methylphenyl]-1,3-diazaspiro[4.4]non-1-en-4-one], the pIC50 in assay [1] is 7.19. In addition, the inhibition at 10 µM in assay [2] is 111%. Moreover, the IC50 was 33.1 nM in assay [2], around 28.8 nM with A2780 ovarian cells [3] and above 10000 nM with A2780 ovarian cells [4].
In assay [1], `Cc1cc(-c2ccc3cnccc3c2)ccc1C1=NC2(CCCC2)C(=O)N1C[C@@H]1CCN(C(=O)C2CC2)C1` [compound 74, 3-{[(3R)-1-(cyclopropylcarbonyl)pyrrolidin-3-yl]methyl}-2-(4-isoquinolin-6-yl-2-methylphenyl)-1,3-diazaspiro[4.4]non-1-en-4-one] had a pIC50 of 7.22. Besides, the inhibition at 10 µM in assay [2] is 114%. For the same compound, the IC50 was 22.4 nM in assay [2], 8.71 nM in the assay with A2780 ovarian cells [3] and above 10000 nM with A2780 ovarian cells [4].
As to `O=C(C1CC1)N1CCC(CN2C(=O)C3(CCCC3)N=C2c2ccc(-c3ccc4occc4c3)cc2)CC1` [compound 75, 1-[4-(1-Benzofuran-5-yl)phenyl]-3-{[1-(cyclopropylcarbonyl)piperidin-4-yl]methyl}-1,3-diazaspiro[4.4]non-1-en-4-one], the pIC50 in assay [1] was 5.67. Besides, in assay [2], the inhibition at 10 µM was 92.7%. Moreover, the IC50 in assay [2] is 513 nM; in the assay on A2780 ovarian cells [3], 5890 nM; with A2780 ovarian cells [4] it was above 10000 nM.
As to `O=C(C1CC1)N1CCC(CN2C(=O)C3(CCCC3)N=C2c2ccc(-c3ccc4[nH]ccc4c3)cc2)CC1` [compound 76, 3-{[1-(Cyclopropylcarbonyl)piperidin-4-yl]methyl}-2-[4-(1H-indol-5-yl)phenyl]-1,3-diazaspiro[4.4]non-1-en-4-one], in assay [1], the pIC50 is 6.10. Also, in assay [2], the inhibition at 10 µM was determined as 99.2%. Further, the IC50 in assay [2] was 129 nM; in the assay with A2780 ovarian cells [3] it was 513 nM; in the assay with A2780 ovarian cells [4] it was above 10000 nM.
In turn, `O=C(C1CC1)N1CCC(CN2C(=O)C3(CCCC3)N=C2c2ccc(-c3ccc4cnccc4c3)cc2)CC1` [compound 77, 3-{[1-(Cyclopropylcarbonyl)piperidin-4-yl]methyl}-2-(4-isoquinolin-6-ylphenyl)-1,3-diazaspiro[4.4]non-1-en-4-one] gave a pIC50 in assay [1] of 6.06. In addition, the inhibition at 10 µM in assay [2] was determined as 103%. For the same compound, the IC50 in assay [2] is 174 nM; in the assay with A2780 ovarian cells [3], 661 nM; in the assay with A2780 ovarian cells [4], above 10000 nM.
Consider `O=C(C1CC1)N1CC(CN2C(=O)C3(CCCC3)N=C2c2ccc(-c3ccc4cnccc4c3)cc2)C1` [compound 79, 3-{[1-(Cyclopropylcarbonyl)azetidin-3-yl]methyl}-2-(4-isoquinolin-6-ylphenyl)-1,3-diazaspiro[4.4]non-1-en-4-one], for which, in assay [1], the pIC50 was 6.49. Further, in assay [2], the inhibition at 10 µM was determined as 108%. Also, the IC50 was 61.7 nM in assay [2], 145 nM in the assay with A2780 ovarian cells [3] and above 10000 nM in the assay on A2780 ovarian cells [4].
The matching figures for `O=C(C1CC1)N1CC(CN2C(=O)C3(CCCC3)N=C2c2ccc(-c3ccc4occc4c3)cc2)C1` [compound 80, 2-[4-(1-Benzofuran-5-yl)phenyl]-3-{[1-(cyclopropylcarbonyl)azetidin-3-yl]methyl}-1,3-diazaspiro[4.4]non-1-en-4-one]: 5.83, 92.1%, 437 nM, 2290 nM and above 10000 nM.
For `CN1CCC2(CC1)N=C(c1ccc(-c3ccc4[nH]ccc4c3)cc1)N(C[C@@H]1CCN(C(=O)C3CC3)C1)C2=O` [compound 81, (R)-2-(4-(1H-Indol-5-yl)phenyl)-3-((1-(cyclopropanecarbonyl)pyrrolidin-3-yl)methyl)-8-methy-1,3,8-triazaspiro[4.5]dec-1-en-4-one], in that order: 6.73, 109%, 91.2 nM, 102 nM and above 6170 nM.
`O=C(C1CC1)N1CC[C@@H](CN2C(=O)C3(CCCC3)N=C2c2ccc(-c3ccc(Cl)cc3)cc2)C1` [compound 82] showed a pIC50 in assay [1] of 5.92. The inhibition at 10 µM in assay [2] was found to be 105%. The IC50 in assay [2] is 214 nM; in the assay on A2780 ovarian cells [3], 3720 nM; in the assay with A2780 ovarian cells [4] it was above 10000 nM.
On to `COc1ccc(-c2ccc(C3=NC4(CCCC4)C(=O)N3C[C@@H]3CCN(C(=O)C4CC4)C3)cc2)cc1` [compound 85, 3-{[(3R)-1-(Cyclopropylcarbonyl)pyrrolidin-3-yl]methyl}-2-(4′-methoxybiphenyl-4-yl)-1,3-diazaspiro[4.4]non-1-en-4-one], for which the pIC50 in assay [1] was 5.69. Also, the inhibition at 10 µM in assay [2] stood at 97.9%. Further, the IC50 is 355 nM in assay [2], around 2880 nM in the assay on A2780 ovarian cells [3] and above 10000 nM in the assay on A2780 ovarian cells [4].
`C=CC(=O)N1CC[C@@H](CN2C(=O)C3(CCN(Cc4ccccc4)CC3)N=C2c2ccc(-c3ccc4occc4c3)cc2)C1` [compound 90, 3-{[(3R)-1-Acryloylpyrrolidin-3-yl]methyl}-2-[4-(1-benzofuran-5-yl)phenyl]-8-benzyl-1,3,8-triazaspiro[4.5]dec-1-en-4-one]: the pIC50 in assay [1] was 5.87. In addition, the inhibition at 10 µM in assay [2] turned out to be 101%. The values for the IC50 (in assay [2]; with A2780 ovarian cells [3]; with A2780 ovarian cells [4]) were 309 nM, 6310 nM and above 10000 nM, respectively.
`O=C(C1CC1)N1CC[C@@H](CN2C(=O)C3(CCCC3)N=C2c2ccc(-c3cccc4[nH]ncc34)cc2)C1` [compound 92, 3-{[(3R)-1-(Cyclopropylcarbonyl)pyrrolidin-3-yl]methyl}-2-[4-(1H-indazol-4-yl)phenyl]-1,3-diazaspiro[4.4]non-1-en-4-one] gave a pIC50 in assay [1] of 7.11. Also, in assay [2], the inhibition at 10 µM is 111%. In addition, the IC50 in assay [2] was 51.3 nM; with A2780 ovarian cells [3] it was 45.7 nM; in the assay on A2780 ovarian cells [4], above 10000 nM.
In turn, `Cc1cc(-c2ccc(Cl)cc2)ccc1C1=NC2(CCCC2)C(=O)N1C[C@@H]1CCN(C(=O)C2CC2)C1` [compound 93, 2-(4′-Chloro-3-methylbiphenyl-4-yl)-3-{[(3R)-1-(cyclopropylcarbonyl)pyrrolidin-3-yl]methyl}-1,3-diazaspiro[4.4]non-1-en-4-one] showed a pIC50 in assay [1] of 6.58. Moreover, the inhibition at 10 µM in assay [2] was determined as 116%. Moreover, the figures for the IC50 (in assay [2]; in the assay on A2780 ovarian cells [3]; in the assay on A2780 ovarian cells [4]) were 75.9 nM, around 2090 nM and above 10000 nM, respectively.
Compound `Cc1cc(-c2ccc(Cl)cc2Cl)ccc1C1=NC2(CCCC2)C(=O)N1C[C@@H]1CCN(C(=O)C2CC2)C1` [compound 94, 3-{[(3R)-1-(Cyclopropylcarbonyl)pyrrolidin-3-yl]methyl}-2-(2′,4′-dichloro-3-methylbiphenyl-4-yl)-1,3-diazaspiro[4.4]non-1-en-4-one] gave a pIC50 in assay [1] of 6.05. In assay [2], the inhibition at 10 µM came to 111%. Further, the IC50 is 145 nM in assay [2], around 2140 nM in the assay on A2780 ovarian cells [3] and above 10000 nM in the assay with A2780 ovarian cells [4].
`Cc1ccc(-c2ccc(C3=NC4(CC4)C(=O)N3C[C@@H]3CCN(C(=O)C4CC4)C3)cc2)cc1` [compound 100, 6-{[(3R)-1-(Cyclopropylcarbonyl)pyrrolidin-3-yl]methyl}-5-(4′-methylbiphenyl-4-yl)-4,6-diazaspiro[2.4]hept-4-en-7-one] gave a pIC50 in assay [1] of 6.68. For the same compound, the inhibition at 10 µM in assay [2] amounted to 110%. Besides, the IC50 is 74.1 nM in assay [2], 776 nM in the assay with A2780 ovarian cells [3] and above 10000 nM in the assay on A2780 ovarian cells [4].
